Reference: patent US8324390B2, “Tetrazole-substituted anthranilamides as pesticides” (Bayer CropScience AG, priority 2008, dated 2012)
Like-named read-outs stand apart in the source and are kept apart here. Each block holds one compound with its values, some of them ahead of it.

Assays:
[1] = log P determination by HPLC (EEC Directive 79/831 Annex V.A8); type: physicochemical
Description: The measurements were carried out using an Agilent 1100 LC system with a 50*4.6 Zorbax Eclipse C18 1.8 μm column (oven temperature 55° C., flow rate 2.0 ml/min).
The following mobile phases were used:
Mobile phase A: acetonitrile+1000 μl of formic acid/l
Mobile phase B: Millipore water+900 μl of formic acid/l

[2] = system: caterpillars of the armyworm (Spodoptera frugiperda); assay: Spodoptera frugiperda test (SPODFR spray treatment); type: in vivo; conditions: Spodoptera frugiperda, foliar, read-out: effect in % (caterpillars killed)
Source text: Solvent: 78.0 parts by weight of acetone

[3] = system: larvae of the mustard beetle (Phaedon cochleariae); assay: Phaedon test (PHAECO spray treatment); conditions: Phaedon cochleariae, in Brassica rapa, foliar, read-out: effect in % (beetle larvae killed)
[4] = reversed-phase HPLC, Zorbax Eclipse C18 column, determined by HPLC according to EEC Directive 79/831 Annex V.A8, read-out: log P
[5] = application rate 100 g/ha, maize leaf discs
[6] = reversed-phase HPLC, Zorbax Eclipse C18 column, by HPLC according to EEC Directive 79/831 Annex V.A8, read-out: log P

- chromatographic logP [1, 4]: 3.31
Structure (SMILES): Cc1cc(I)cc(C(=O)NC2CC2)c1NC(=O)c1cc(Cn2nnnc2C(F)(F)F)nn1-c1ncccc1C(F)(F)F [Example 456]
- pest or weed control at 100 g/ha [2, 5]: ≥ 80%
- pest or weed control at 100 g/ha [3]: ≥ 80%

Structure (SMILES): O=C(NC1CCC1)c1cc(Cl)cc(Cl)c1NC(=O)c1cc(Cn2nnc(C(F)F)n2)nn1-c1ncccc1Cl [Example 291]
- chromatographic logP ([1]; log P): 3.06
- pest or weed control at 100 g/ha ([2]; in Zea mays): ≥ 80%
- pest or weed control at 100 g/ha [3]: ≥ 80%

- chromatographic logP [1, 6]: 3.07
Structure (SMILES): CCNC(=O)c1cc(C#N)cc(C)c1NC(=O)c1cc(Cn2nnc(C(F)(F)F)n2)nn1-c1ncccc1C(F)(F)F [Example 234]
- pest or weed control at 100 g/ha [2, 5]: ≥ 80%
- pest or weed control at 100 g/ha [3]: ≥ 80%

- chromatographic logP [1, 6]: 3.57
Structure (SMILES): Cc1cc(C#N)cc(C(=O)NCC(F)F)c1NC(=O)c1cc(Cn2nnc(C(F)(C(F)(F)F)C(F)(F)F)n2)nn1-c1ncccc1Cl [Example 375]
- pest or weed control at 100 g/ha [2, 5]: ≥ 80%
- pest or weed control at 100 g/ha [3]: ≥ 80%

- chromatographic logP [1, 4]: 3.51
Structure (SMILES): CCNC(=O)c1cc(I)cc(C)c1NC(=O)c1cc(Cn2nnc(C(F)(F)F)n2)nn1-c1ncccc1Br [Example 408]
- pest or weed control at 100 g/ha [2, 5]: ≥ 80%
- pest or weed control at 100 g/ha [3]: ≥ 80%

Structure (SMILES): Cc1cc(Cl)cc(C(=O)NC2CC2)c1NC(=O)c1cc(Cn2nnc(C(F)(F)C(F)(F)F)n2)nn1-c1ncccc1Cl [Example 127]
- chromatographic logP ([1]; log P): 3.7
- pest or weed control at 100 g/ha ([2]; in Zea mays): ≥ 80%
- pest or weed control at 100 g/ha [3]: ≥ 80%

Structure (SMILES): CCNC(=O)c1cc(Cl)cc(Cl)c1NC(=O)c1cc(Cn2nnc(C(F)(F)F)n2)nn1-c1ncccc1Cl [Example 58]
- chromatographic logP ([1]; log P): 3.17
- pest or weed control at 100 g/ha ([2]; in Zea mays): ≥ 80%
- pest or weed control at 100 g/ha [3]: ≥ 80%

Structure (SMILES): CNC(=O)c1cc(C#N)cc(C)c1NC(=O)c1cc(Cn2nnc(C(F)F)n2)nn1-c1ncccc1Cl [Example 262]
- chromatographic logP ([1]; log P): 2.17
- pest or weed control at 100 g/ha ([2]; in Zea mays): ≥ 80%
- pest or weed control at 100 g/ha [3]: ≥ 80%

- chromatographic logP [1, 6]: 3.04
Structure (SMILES): Cc1cc(Br)cc(C(N)=O)c1NC(=O)c1cc(Cn2nnc(C(F)(F)F)n2)nn1-c1ncccc1C(F)(F)F [Example 251]
- pest or weed control at 100 g/ha [2, 5]: ≥ 80%
- pest or weed control at 100 g/ha [3]: ≥ 80%

Structure (SMILES): O=C(NC1CC1)c1cc(Cl)cc(Cl)c1NC(=O)c1cc(Cn2nnnc2C(F)F)nn1-c1ncccc1Cl [Example 469]
- chromatographic logP ([1]; log P): 2.44
- pest or weed control at 100 g/ha ([2]; in Zea mays): ≥ 80%
- pest or weed control at 100 g/ha [3]: ≥ 80%

Structure (SMILES): CCNC(=O)c1cc(Cl)cc(C)c1NC(=O)c1cc(Cn2nnc(C(F)(F)C(F)(F)F)n2)nn1-c1ncccc1Cl [Example 128]
- chromatographic logP ([1]; log P): 3.65
- pest or weed control at 100 g/ha ([2]; in Zea mays): ≥ 80%
- pest or weed control at 100 g/ha [3]: ≥ 80%

Structure (SMILES): Cc1cc(C#N)cc(C(=O)NC(C2CC2)C2CC2)c1NC(=O)c1cc(Cn2nnc(C(F)(F)F)n2)nn1-c1ncccc1Cl [Example 87]
- chromatographic logP ([1]; log P): 3.65
- pest or weed control at 100 g/ha ([2]; in Zea mays): ≥ 80%
- pest or weed control at 100 g/ha [3]: ≥ 80%

- chromatographic logP [1, 4]: 3.48
Structure (SMILES): Cc1cc(C#N)cc(C(=O)NCC(F)(F)F)c1NC(=O)c1cc(Cn2nnc(C(F)(F)F)n2)nn1-c1ccccc1Cl [Example 537]
- pest or weed control at 100 g/ha [2, 5]: ≥ 80%
- pest or weed control at 100 g/ha [3]: ≥ 80%

Structure (SMILES): Cc1cc(Cl)cc(C(=O)NC(C)C2CC2)c1NC(=O)c1cc(Cn2nnnc2C(F)(F)C(F)(F)F)nn1-c1ncccc1Cl (stereo not drawn) [Example 199]
- chromatographic logP ([1]; log P): 3.88
- pest or weed control at 100 g/ha ([2]; in Zea mays): ≥ 80%
- pest or weed control at 100 g/ha [3]: ≥ 80%

- chromatographic logP [1, 6]: 3.16
Structure (SMILES): CNC(=O)c1cc(Cl)cc(C)c1NC(=O)c1cc(Cn2nnc(C(F)(F)F)n2)nn1-c1ncccc1C(F)(F)F [Example 226]
- pest or weed control at 100 g/ha [2, 5]: ≥ 80%
- pest or weed control at 100 g/ha [3]: ≥ 80%

Structure (SMILES): CNC(=O)c1cc(I)cc(C)c1NC(=O)c1cc(Cn2nnc(C(F)(F)C(F)(F)F)n2)nn1-c1ncccc1Cl [Example 140]
- chromatographic logP ([1]; log P): 3.64
- pest or weed control at 100 g/ha ([2]; in Zea mays): ≥ 80%
- pest or weed control at 100 g/ha [3]: ≥ 80%

Structure (SMILES): Cc1cc(F)cc(C(=O)NC(C)C)c1NC(=O)c1cc(Cn2nnc(C(F)(F)F)n2)nn1-c1ncccc1Cl [Example 40]
- chromatographic logP ([1]; log P): 3.11
- pest or weed control at 100 g/ha ([2]; in Zea mays): ≥ 80%
- pest or weed control at 100 g/ha [3]: ≥ 80%

Structure (SMILES): Cc1cc(C#N)cc(C(=O)NCC(F)F)c1NC(=O)c1cc(Cn2nnnc2C(F)(F)F)nn1-c1ncccc1Cl [Example 207]
- chromatographic logP ([1]; log P): 2.57
- pest or weed control at 100 g/ha ([2]; in Zea mays): ≥ 80%
- pest or weed control at 100 g/ha [3]: ≥ 80%

- chromatographic logP [1, 4]: 3.77
Structure (SMILES): Cc1cc(I)cc(C(=O)NC(C)C)c1NC(=O)c1cc(Cn2nnc(C(F)(F)F)n2)nn1-c1ncccc1Br [Example 413]
- pest or weed control at 100 g/ha [2, 5]: ≥ 80%
- pest or weed control at 100 g/ha [3]: ≥ 80%

- chromatographic logP [1, 6]: 3.07
Structure (SMILES): Cc1cc(C#N)cc(C(=O)NC2CC2)c1NC(=O)c1cc(Cn2nnc(C(F)(F)F)n2)nn1-c1ncccc1C(F)(F)F [Example 233]
- pest or weed control at 100 g/ha [2, 5]: ≥ 80%
- pest or weed control at 100 g/ha [3]: ≥ 80%
